From PubChem BioAssay AID2060609 (Molecular Pharmacology Branch, DTP, NCI, 2025)

Test system: 855422-203-R-J1-PDC complex spheroids, viability
Assay: Anticancer human tumor 855422-203-R-J1-PDC patient-derived bladder carcinoma cell line growth inhibition [CLK]
Conditions: for viability, T/C: stronger effect = lower value; active = viability on the fitted dose curve at most 10% of control; inactive = the rest
Procedure, shortened: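 Patient-derived tumor cells grown as complex spheroids with HUVEC endothelial cells and mesenchymal stem cells, treated with drug combinations. Concentrations descend in half-log steps from near clinical Cmax, or from 10 microM if Cmax unknown.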
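Note: spheroids exposed to drugs for seven days before readout.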
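Throughout, for viability, T/C: 100% = DMSO vehicle control wells.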

O=C(c1cc(Cc2n[nH]c(=O)c3ccccc23)ccc1F)N1CCN(C(=O)C2CC2)CC1 + CNC(=O)c1ccc(Nc2nc(OC3CCCC3)c3c(-c4ccc5nc(C)oc5c4)c[nH]c3n2)c(OC)c1
inactive: viability, T/C (second compound 0.0316 µM, first compound 0.0316 µM) 117% | viability, T/C (second compound 0.0316 µM, first compound 0.1 µM) 100% | viability, T/C (second compound 0.0316 µM, first compound 0.316 µM) 111% | viability, T/C (second compound 0.0316 µM, first compound 1 µM) 98.1% | viability, T/C (second compound 0.0316 µM, first compound 3.16 µM) 112% | viability, T/C (second compound 0.0316 µM, first compound 10 µM) 82.5% | viability, T/C (second compound 0.1 µM, first compound 0.0316 µM) 58.6% | viability, T/C (second compound 0.1 µM, first compound 0.1 µM) 69.4% | viability, T/C (second compound 0.1 µM, first compound 0.316 µM) 63.6% | viability, T/C (second compound 0.1 µM, first compound 1 µM) 47.4% | viability, T/C (second compound 0.1 µM, first compound 3.16 µM) 57.2% | viability, T/C (second compound 0.1 µM, first compound 10 µM) 45.1% | viability, T/C (second compound 0.316 µM, first compound 0.0316 µM) 20.3% | viability, T/C (second compound 0.316 µM, first compound 0.1 µM) 21.5% | viability, T/C (second compound 0.316 µM, first compound 0.316 µM) 21.1% | viability, T/C (second compound 0.316 µM, first compound 1 µM) 23.7% | viability, T/C (second compound 0.316 µM, first compound 3.16 µM) 21.9% | viability, T/C (second compound 0.316 µM, first compound 10 µM) 23.8% | viability, T/C (second compound 1 µM, first compound 0.0316 µM) 24.4% | viability, T/C (second compound 1 µM, first compound 0.1 µM) 21.6% | viability, T/C (second compound 1 µM, first compound 0.316 µM) 21.1% | viability, T/C (second compound 1 µM, first compound 1 µM) 28.1% | viability, T/C (second compound 1 µM, first compound 3.16 µM) 22.1% | viability, T/C (second compound 1 µM, first compound 10 µM) 18.5% | viability, T/C (second compound 3.16 µM, first compound 0.0316 µM) 23.3% | viability, T/C (second compound 3.16 µM, first compound 0.1 µM) 22.3% | viability, T/C (second compound 3.16 µM, first compound 0.316 µM) 21.6% | viability, T/C (second compound 3.16 µM, first compound 1 µM) 19.9% | viability, T/C (second compound 3.16 µM, first compound 3.16 µM) 21.3% | viability, T/C (second compound 3.16 µM, first compound 10 µM) 23.4% | viability, T/C (second compound 10 µM, first compound 0.0316 µM) 18.5% | viability, T/C (second compound 10 µM, first compound 0.1 µM) 18% | viability, T/C (second compound 10 µM, first compound 0.316 µM) 17.9% | viability, T/C (second compound 10 µM, first compound 1 µM) 20% | viability, T/C (second compound 10 µM, first compound 3.16 µM) 19.9% | viability, T/C (second compound 10 µM, first compound 10 µM) 19.5%
> 10000 nM: IC50 (curve of first compound, second compound 0.0316 µM)
4780 nM: IC50 (curve of first compound, second compound 0.1 µM)
< 31.6 nM: IC50 (curve of first compound, second compound 0.316 µM) | IC50 (curve of first compound, second compound 1 µM) | IC50 (curve of first compound, second compound 3.16 µM) | IC50 (curve of first compound, second compound 10 µM)

CNC(=O)c1ccc(Nc2nc(OC3CCCC3)c3c(-c4ccc5nc(C)oc5c4)c[nH]c3n2)c(OC)c1
142 nM [middle of 11 runs]: IC50 (compound alone, run of 08/01/2023)
inactive: viability, T/C (compound 0.316 µM) 23.8% [middle of 12 runs] | viability, T/C (compound 1 µM) 22.5% [middle of 12 runs] | viability, T/C (compound 3.16 µM) 21.2% [middle of 12 runs] | viability, T/C (compound 10 µM) 20.1% [middle of 11 runs]
